According to patent US4333941A, “Inhibition of enveloped viruses with phenyl ketones” (The Dow Chemical Company, priority 1977, dated 1982):
Structures can show the parent of a compound that is named as a salt. Where two headings read alike, the source gives them in different places.

Experiments:
HSV-1 [1] = experiment: Inactivation of HSV-1, plaque assay on Vero or HeLa cells (Example 1); format: cell-based, herpes simplex virus type I; details: Human alphaherpesvirus 1, 1 h, one hour at 37° C., versus water control, read-out: Concentration Producing 50% Virus Inhibition
[2] = test system: VSV (vesicular stomatitis virus); experiment: microbe, parasite or virus in culture; format: cell-based; details: 1 h
HSV-1 [3] = experiment: Inactivation of HSV-1 (Example 2); format: cell-based, herpes simplex virus type I; details: Human alphaherpesvirus 1, 1 h
[4] = test system: SFV (semliki forest virus); experiment: Inactivation of SFV (Example 2); format: cell-based; details: 1 h, one hour exposure, read-out: concentration for fifty percent inactivation
influenza = experiment: Inactivation of influenza virus (Example 2); format: cell-based; details: unidentified influenza virus, 1 h
[5] = test system: NDV (Newcastle's disease virus); experiment: organism not typed; format: cell-based; details: 1 h, read-out: concentration for fifty percent inactivation
rhinovirus = experiment: Inactivation of rhinovirus (Example 2); format: cell-based
poliovirus = format: cell-based; details: poliovirus (picorna viruses)
vaccinia virus = experiment: microbe, parasite or virus in culture; format: cell-based; details: Orthopoxvirus vaccinia, 1 h, read-out: concentration for 50 percent inactivation
HSV-1 [6] = details: guinea pig, in vivo
HSV-2 [7] = details: guinea pig, in vivo
mice = details: cited from earlier work
HSV-2 [8] = experiment: Inactivation of one strain of HSV-2 (Example 3); details: Human alphaherpesvirus 2, 1 h, read-out: concentration for ninety nine percent inactivation
HSV-1 [9] = experiment: Inactivation of two strains of HSV-1 (Example 3); details: Human alphaherpesvirus 1, 1 h, read-out: concentration for ninety nine percent inactivation
HSV-1, Stohr strain = experiment: In vivo treatment of HSV-1 skin infection in guinea pigs (Example 5); details: 2 percent in 5 percent ethanol, topical hourly
HSV-2 [10] = experiment: In vivo treatment of genital cutaneous mucosa infected with HSV-2 (Example 8); details: all the animals, including placebo and control
[11] = read-out: concentration for fifty percent inactivation

## CCCCOc1ccc(C(=O)CCN2CCOCC2)cc1
HSV-1 [1]
  IC50: 125 µM

## CCCCOc1ccc(C(=O)C(C)C[N+]2(C)CCCCC2)cc1 (stereo not drawn) [1-[2-(4-butoxybenzoyl)-2-methylethyl]-1-methyl-piperidinium iodide]
HSV-1 [1]
  IC50: > 750 µM

## CCCCOc1ccc(C(=O)CC[N+]2(C)CCCCC2)cc1 [1-[2-(4-butoxybenzoyl)-ethyl]-1-methyl piperidinium iodide]
HSV-1 [1]
  IC50: < 125 µM

## O=C(CCN1CCCCC1)c1ccc(Cl)c(Cl)c1 [3',4'-Dichloro-3-piperidino-propiophenone . HCl]
HSV-1 [1]
  IC50: < 125 µM

## O=C(CCN1CCCCC1)c1cccc(Cl)c1 [3'-Chloro-3-piperidino-propiophenone . HCl]
HSV-1 [1]
  IC50: 125 µM

## CC(=O)C(CN1CCCCC1)c1ccccc1 (stereo not drawn) [3-Phenyl-4-piperidino-2-butanone . HCl]
HSV-1 [1]
  IC50: 550 µM

## CCCCOc1ccc(C(=O)CCN(CC)CC)cc1 [4'-Butoxy-3-diethylamino-propiophenone . HCl]
HSV-1 [1]
  IC50: < 125 µM

## CCOc1ccc(C(=O)CCN2CCCCC2)cc1 [4'-Ethoxy-3-piperidino-propiophenone . HCl]
HSV-1 [1]
  IC50: 1500 µM

## CCCCCCOc1ccc(C(=O)CCN2CCCCC2)cc1 [4'-Hexyloxy-3-piperidino-propiophenone . HCl]
HSV-1 [1]
  IC50: < 125 µM

## CC(C)COc1ccc(C(=O)CCN2CCCCC2)cc1 [4'-Isobutoxy-3-piperidino-propiophenone . HCl]
HSV-1 [1]
  IC50: 200 µM

## CCCOc1ccc(C(=O)CCN2CCCCC2)cc1 [4'-Propoxy-3-piperidino-propiophenone . HCl]
HSV-1 [1]
  IC50: 400 µM

## CCCCCCCCCCOc1ccc(C(=O)CCN2CCCCC2)cc1 [4'-n-Decyloxy-3-piperidino-propiophenone . HCl]
HSV-1 [1]
  IC50: < 125 µM

## CCCCCCCCOc1ccc(C(=O)CCN2CCCCC2)cc1 [4'-n-Octyloxy-3-piperidino-propiophenone . HCl]
HSV-1 [1]
  IC50: < 125 µM

## COc1ccc(C(=O)CCN2CCCCC2)cc1 [4-Methoxy-3-piperidino propiophenone . HCl]
HSV-1 [1]
  IC50: 125 µM

## CCCCOc1ccc(C(=O)CCN2CCCCC2)cc1 [Dyclonine . HCl, 4-n-butoxy-β-(1-piperidyl)-propiophenone hydrochloride]
HSV-1 [1]
  IC50: 125 µM
[2]; [11]
  IC50: ≤ 1000 µM
[2]; read-out: inactivation of VSV
  killing at 500 µM: > 99%
HSV-1 [3]; [11]
  IC50: ≤ 1000 µM
HSV-1 [3]; read-out: inactivation of HSV
  killing at 500 µM: > 90%
[4]
  IC50: ≤ 1000 µM
influenza; [11]
  IC50: ≤ 1000 µM
influenza; read-out: inactivation of influenza virus
  killing at 500 µM: ~80%
[5]
  IC50: ≤ 1000 µM
rhinovirus
  percent inactivated: less than 50%
poliovirus
  percent inactivated: less than 50%
Vaccinia virus
  IC50: ≤ 2000 µM
HSV-1 [6]
  Candida (yeast) infection: a Candida (yeast) infection developed
HSV-2 [7]
  detrimental adverse reactions: No detrimental adverse reactions were observed
  hyperkeratosis: mild hyperkeratosis noted in some of the animals
mice; intraperitoneal injection
  acute LD50: 52.8 mg/kg
mice; intravenous
  acute LD50: 19.5 mg/kg
HSV-2 [8]
  IC99: < 1000 µM
HSV-1 [9]
  IC99: < 1000 µM
HSV-1, Stohr strain; 48 hours after inoculation, placebo 88 percent
  sites with herpes lesions: 31% of the sites
HSV-1, Stohr strain; by 72 hours
  sites with herpes lesions: 7% of the sites
HSV-2 [10]
  hyperkeratosis: hyperkeratosis was noted in all the animals

## CCCCOc1cc(C(=O)OCCN(CC)CC)ccc1N [benoxinate . HCl]
HSV-1 [1]
  IC50: > 2000 µM

## CCOC(=O)c1ccc(N)cc1 [benzocaine]
HSV-1 [1]
  IC50: > 2000 µM

## CCCCOc1cc(C(=O)NCCN(CC)CC)c2ccccc2n1 [dibucaine . HCl]
HSV-1 [1]
  IC50: 800 µM

## CCN(CC)CC(=O)Nc1c(C)cccc1C [lidocaine . HCl]
HSV-1 [1]
  IC50: > 2000 µM

## CCOc1ccc(N=C(C)Nc2ccc(OCC)cc2)cc1 [phenacaine . HCl]
HSV-1 [1]
  IC50: > 2000 µM

## CCCCOc1ccc(OCCCN2CCOCC2)cc1 [pramoxine . HCl]
HSV-1 [1]
  IC50: 675 µM

## CCN(CC)CCOC(=O)c1ccc(N)cc1 [procaine . HCl]
HSV-1 [1]
  IC50: > 2000 µM

## CCCOc1ccc(C(=O)OCCN(CC)CC)cc1N [proparacaine . HCl]
HSV-1 [1]
  IC50: > 2000 µM

## CCCCNc1ccc(C(=O)OCCN(C)C)cc1 [tetracaine . HCl]
HSV-1 [1]
  IC50: > 2000 µM
